In patent EP4737448A1, “SARM1 ENZYME ACTIVITY INHIBITOR AND USE THEREOF” (Artivila (ShenZhen) Innovation Center, Ltd., priority 2023, dated 2025):

Experiments:
SARM1 = target: T1, SARM1 (Homo sapiens, UniProt Q6SZW1); experiment: In vitro biochemical assay for inhibiting SARM1 enzymatic activity (PC6 fluorescence, NAD substrate, NMN activator); details: 0.05 µg/mL SARM1, 50 µM NAD, 50 µM PC6, 50 µM NMN, 10 min pre-incubation, 30 min at room temperature
T1 construct: the inventor produces full-length SARM1 for NADase activity assays and for screening; His (C); made in house; host or cells: HEK293 cells (transient transfection; digitonin lysate supernatant, not purified further)
T1 sequence (Q6SZW1 28-724): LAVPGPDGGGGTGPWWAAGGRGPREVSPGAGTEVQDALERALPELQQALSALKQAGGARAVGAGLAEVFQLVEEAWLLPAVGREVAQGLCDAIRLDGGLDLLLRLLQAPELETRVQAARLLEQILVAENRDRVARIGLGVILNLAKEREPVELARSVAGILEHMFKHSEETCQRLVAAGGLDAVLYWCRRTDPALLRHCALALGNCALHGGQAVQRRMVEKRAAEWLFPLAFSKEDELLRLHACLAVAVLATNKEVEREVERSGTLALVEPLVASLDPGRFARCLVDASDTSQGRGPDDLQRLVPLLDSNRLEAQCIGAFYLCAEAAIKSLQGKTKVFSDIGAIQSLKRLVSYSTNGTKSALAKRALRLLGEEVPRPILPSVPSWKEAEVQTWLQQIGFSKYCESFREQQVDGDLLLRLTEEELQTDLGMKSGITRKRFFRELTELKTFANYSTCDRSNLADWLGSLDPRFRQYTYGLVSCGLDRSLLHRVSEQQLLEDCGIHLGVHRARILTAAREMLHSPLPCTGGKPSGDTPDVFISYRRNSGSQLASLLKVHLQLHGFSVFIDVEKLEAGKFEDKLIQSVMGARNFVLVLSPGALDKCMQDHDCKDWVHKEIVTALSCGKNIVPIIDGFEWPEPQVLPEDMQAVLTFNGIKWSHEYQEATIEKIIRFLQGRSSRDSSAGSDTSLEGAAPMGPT
Procedure: Compounds to be tested were stocked at 200 µM or 10 mM (in DMSO), and further diluted to the desired compound concentration for the in vitro SARM1 enzyme assay and inhibitor screening.
The gene sequence encoding SARM1 protein was amplified by PCR and the PCR amplification product was constructed into the pcDNA3.1-HIS-C plasmid. This construction was completed by YouBio Biological Technology (Hunan, China).
HEK293 cells were cultured in DMEM in a 10 cm dish. The next day, cells were transfected with 15 µg of the pcDNA3.1-SARM1-HIS-C expression plasmid.
Cells were harvested 48 hours after the transfection. The SARM1 protein expressed in cells was obtained through cell lysis by digitonin, which was used for in vitro activity assay. The specific process was as follows:
Cells were digested and detached from the dish using trypsin-EDTA, centrifuged at 1000 rpm for 5 minutes, washed once with PBS, then resuspended in PBS containing 100 µM digitonin at 0.6 mL PBS for the cells in 10 cm dish and lysed for 5 min. The cells were added with trypan blue and observed under a microscope. More than 90% of the cells were confirmed to be lysed. The cells were centrifuged at 5000 rpm for 10 min, and the supernatant containing SARM1 protein was collected.
The compound was added into a solution of 50 mM Tris-HCl (pH 7.5) containing 0.05 µg/mL SARM1 to achieve a concentration of 200 µM, and then serially diluted 6 times, where each dilution was carried out by taking half of the previous solution and adding an equal volume of 50 mM Tris-HCl (pH 7.5) containing 0.05 µg/mL SARM1, yielding a set of final concentrations of the compound of either 200, 100, 50, 25, 12.5, 6.25 and 3.125 µM, or 200, 50, 12.5, 3.125, 0.78, 0.195 and 0.049 µM. No inhibitor was added in the control group. All mixtures were incubated at room temperature for 10 min.
Subsequently, 50 µM NAD, 50 µM PC6 as substrate and 50 µM NMN as activator were added to the SARM1 protein incubated with the inhibitor and reacted for 30 min at room temperature. Wherein, the aforementioned concentrations of each component represent their respective final concentrations in the reaction system
During the reaction, the fluorescence spectrum dynamics of PC6 was detected by a microplate reader, with excitation and emission wavelengths set at 390 nm and 520 nm, respectively. The activity of the protein was expressed as the reaction rate and half maximal inhibitory concentration was calculated. The higher the reaction rate, the stronger the protein activity, and the lower the inhibitory efficiency of the compound.
Dose-response curves for inhibition of SARM1 enzymatic activity for NAD by the compounds were plotted using the above method.

[1] = system: axons of dorsal root ganglia explants; experiment: Wallerian degeneration assay of axon in mouse DRG explant culture; assay type: cell-based, C57BL/6 mice; details: 10 µM compound, 2 h pretreatment, 24 h post axonal transection
Procedure: Dorsal root ganglia were dissected from two-month-old male C57BL/6 mice and placed into a 35-mm culture dish containing ice-cold HBSS buffer. Extra tissue surrounding each dorsal ganglion was removed using a scalpel, and the ganglia were cut into 2-3 explant pieces. These explants were seeded into wells of a 96-well plate pre-coated with 100 ng/mL Matrigel (Corning), added with 100 µL of DRG medium (Neurobasal medium (Gibco) containing 2% B-27 (Gibco), 1% GlutaMAX (Gibco) and 10 ng/mL NGF (MCE)), and cultured in a 37°C incubator for one week. The medium was half- replaced on the fourth day and the experiments were counted on the eighth day.
Refer to methods reported in literatures in the related art (Gerdts J, Sasaki Y, Vohra B, Marasa J, Milbrandt J. Image-based screening identifies novel roles for IkappaB kinase and glycogen synthase kinase 3 in axonal degeneration. J Biol Chem. 2011 Aug 12;286(32):28011-8) for the definition and measurement principle of the degeneration index of axon. In the present disclosure, the measurement method is detaild below.
0.1 µL of 10 mM compound to be tested was added to 100 µL of DRG medium to prepare a new medium containing 10 µM compound to be tested. The medium in the 96-well plate was removed and replaced with the new medium containing the compound to be tested. Explant pieces of dorsal ganglia were incubated with compounds in a 37°C incubator for 2 h of pre-protection. Following this 2-hour pretreatment, axons were transcted near the explants tissue piece using a glass microelectrode. At 0 h and 24 h post axonal transection, brightfield images of axons in the same region were captured using a microscope (Olympus) with 20× objective. Axonal integrity was assessed using an in-house developed script. The results were categorized based on the degree of protection into: (A) >50% and (B) 20-50%.

Row | Compound | IC50 (SARM1) | Degree of protection against axonal Wallerian Degeneration [1]
1 | O=C1C(Cc2ccc(F)c(F)c2)CCN1c1ccc(-c2ccncc2)cc1 (racemic) [Compound 30, 3-(3,4-difluorobenzyl)-1-(4-(pyridin-4-yl)phenyl)pyrrolidin-2-one] | < 1 µM | A ((A) >50%)
2 | O=C1C(Cc2ccc(Cl)cc2)CCN1c1ccc(-c2ccncc2)cc1 (stereo not shown) [Compound 1, 3-(4-chlorobenzyl)-1-(4-(pyridin-4-yl)phenyl)pyrrolidin-2-one] | < 1 µM | A ((A) >50%)
3 | O=C1C(Cc2ccc(F)cc2)CCN1c1ccc(-c2ccncc2)cc1 (stereo not shown) [Compound 15, 3-(4-fluorobenzyl)-1-(4-(pyridin-4-yl)phenyl)pyrrolidin-2-one] | 1 to 10 µM | B ((B) 20-50%)
4 | Cc1ccc(CC2CCN(c3ccc(-c4ccncc4)cc3)C2=O)cc1 (stereo not shown) [Compound 17, 3-(4-methylbenzyl)-1-(4-(pyridin-4-yl)phenyl)pyrrolidin-2-one] | 1 to 10 µM | A ((A) >50%)
5 | O=C1C(Cc2ccc(Cl)cc2)CCN1c1cnc(-c2ccncc2)cn1 (stereo not shown) [Compound 20, 3-(4-chlorobenzyl)-1-(5-(pyridin-4-yl)pyrazin-2-yl)pyrrolidin-2-one] | < 1 µM | B ((B) 20-50%)
6 | N#Cc1cc(-c2ccncc2)ccc1N1CCC(Cc2ccc(Cl)cc2)C1=O (stereo not shown) [Compound 21, 2-(3-(4-chlorobenzyl)-2-pyrrolidinone-1-yl)-5-(pyridin-4-yl)benzonitrile] | 10 to 30 µM | B ((B) 20-50%)
7 | O=C1C(Cc2ccc(Cl)nc2)CCN1c1ccc(-c2ccncc2)cc1 (stereo not shown) [Compound 25, 3-((6-chloropyridin-3-yl)methyl)-1-(4-(pyridin-4-yl)phenyl)pyrrolidin-2-one] | 1 to 10 µM | A ((A) >50%)
8 | O=C1C(Cc2ccc(Cl)s2)CCN1c1ccc(-c2ccncc2)cc1 (stereo not shown) [Compound 29, 3-((5-chlorothiophen-2-yl)methyl)-1-(4-(pyridin-4-yl)phenyl)pyrrolidin-2-one] | < 1 µM | A ((A) >50%)
9 | O=C1C(Cc2ccc(Cl)cc2)CCN1c1ccc(-c2ccncc2Cl)cc1 (stereo not shown) [Compound 34, 3-(4-chlorobenzyl)-1-(4-(3-chloropyridin-4-yl)phenyl)pyrrolidin-2-one] | < 1 µM | A ((A) >50%)
10 | O=C1C(Cc2ccc(F)cc2F)CCN1c1ccc(-c2ccncc2)cc1 (stereo not shown) [Compound 41, 3-(2,4-difluorobenzyl)-1-(4-(pyridin-4-yl)phenyl)pyrrolidin-2-one] | 1 to 10 µM | B ((B) 20-50%)
11 | O=C1C(Cc2ccc(Cl)cc2)CCCN1c1ccc(-c2ccncc2)nn1 (stereo not shown) [Compound 53, 3-(4-chlorobenzyl)-1-(6-(pyridin-4-yl)pyridazin-3-yl)piperidin-2-one] | < 1 µM | B ((B) 20-50%)
12 | O=C1C(Cc2ccc(F)cc2)CCN1c1ccc(-c2ccncc2)nn1 (stereo not shown) [Compound 55, 3-(4-fluorobenzyl)-1-(6-(pyridin-4-yl)pyridazin-3-yl)pyrrolidin-2-one] | < 1 µM | B ((B) 20-50%)

More lines, main results first:

Row | IC50 (SARM1) | Compound | Degree of protection against axonal Wallerian Degeneration [1]
13 | < 1 µM | O=C1[C@H](Cc2ccc(F)c(F)c2)CCN1c1ccc(-c2ccncc2)cc1 (single isomer, unassigned) [Compound 81] | A ((A) >50%)
14 | < 1 µM | O=C1[C@H](Cc2ccc(F)c(F)c2)CCN1c1ccc(-c2ccncc2)cc1 (single isomer, unassigned) [Compound 82] | A ((A) >50%)
15 | < 1 µM | O=C1C(Cc2ccc(Cl)cc2)CON1c1ccc(-c2ccncc2)cc1 (stereo not shown) [Compound 3, 4-(4-chlorobenzyl)-2-(4-(pyridin-4-yl)phenyl)isoxazolidin-3-one] | B ((B) 20-50%)
16 | 1 to 10 µM | O=C1C(Cc2ccc(Cl)cc2)CCN1c1ccc(-c2ccncc2)cn1 (stereo not shown) [Compound 6, 1-([3,4'-bipyridin]-6-yl)-3-(4-chlorobenzyl)pyrrolin-2-one] | A ((A) >50%)
17 | 1 to 10 µM | O=C1C(Cc2ccc(Cl)cc2)CCN1c1ccc(-c2ccncc2)nc1 (stereo not shown) [Compound 7] | A ((A) >50%)
18 | 1 to 10 µM | O=C1C(Cc2ccccc2)CCN1c1ccc(-c2ccncc2)cc1 (stereo not shown) [Compound 24, 3-benzyl-1-(4-(pyridin-4-yl)phenyl)pyrrolidin-2-one] | B ((B) 20-50%)
19 | 1 to 10 µM | O=C1C(Cc2cc(F)cc(F)c2)CCN1c1ccc(-c2ccncc2)cc1 (stereo not shown) [Compound 33, 3-(3,5-difluorobenzyl)-1-(4-(pyridin-4-yl)phenyl)pyrrolidin-2-one] | A ((A) >50%)
20 | < 1 µM | S=C1C(Cc2ccc(Cl)cc2)CCN1c1ccc(-c2ccncc2)nn1 (stereo not shown) [Compound 58, 3-(4-chlorobenzyl)-1-(6-(pyridin-4-yl)pyridazin-3-yl)pyrrolidin-2-thione] | B ((B) 20-50%)
21 | 10 to 30 µM | C#Cc1ccc(CC2CCN(c3ccc(-c4ccncc4)cc3)C2=O)cc1 (stereo not shown) [Compound 89, 3-(4-ethynylbenzyl)-1-(4-(pyridin-4-yl)phenyl)pyrrolidin-2-one] | –
22 | 1 to 10 µM | O=C1C(Cc2ccc(/C=C/Cl)cc2)CCN1c1ccc(-c2ccncc2)cc1 (stereo not shown) [Compound 90, (E)-3-(4-(2-chloroethenyl)benzyl)-1-(4-(pyridin-4-yl)phenyl)pyrrolidin-2-one] | –
23 | 10 to 30 µM | CC(=O)c1ccc(CC2CCN(c3ccc(-c4ccncc4)cc3)C2=O)cc1 (stereo not shown) [Compound 91, 3-(4-acetylbenzyl)-1-(4-(pyridin-4-yl)phenyl)pyrrolidin-2-one] | –
